The record followed here is US20190054019A1, “METHODS FOR USING REGULATORS FOR INCREASING THE EXPRESSION OR ACTIVATION OF P53 AND/OR REGULATORS FOR REDUCING OR INHIBITING THE EXPRESSION OF P63-ALPHA, FOR THE TREATMENT OF NON-ALCOHOLIC FATTY LIVER DISEASE (NAFLD) AND/OR NON-ALCOHOLIC STEATOHEPATITIS (NASH)” (Universidade de Santiago de Compostela, priority 2015, published 2019).

The structures appear in SMILES notation.

The test system of one data set is HepG2. Briefly: Accumulation of lipids induced by oleic acid in human hepatocytes (HepG2). The class given is cell-based. The conditions noted are these: 48 h. The method, then: The hepatocyte cell line of human origin HepG2 was treated with bovine serum albumin (BSA, which represents the control group), oleic acid (OA) and 50 nM oleic acid+doxorubicin for 48 h.

Data set [1] in a line: Doxorubicin intraperitoneal for 5 days in Swiss mice on standard diet: body weight. Format: in vivo, mice of the Swiss strain.
Data set [2] has as its system mice of the C57/B6 strain fed with a HFD. Briefly: Doxorubicin in C57/B6 mice fed HFD (60% fat). The class given is in vivo. The conditions noted are these: 0.6 mg/kg i.p. twice per week, two months. As to the method: Subsequently, mice were administered a dose of 0.6 mg/kg intra-peritoneally twice per week during a further period of two months.
For the next data set, the system named is HepG2 cells. Briefly: Response of HepG2 cells (control or p53 negative dominant) to etoposide. The class given is cell-based, human. From the text: FIG. 9. Effect of p53 silencing in HepG2 cells. (A) Efficiency of the down-regulation of p53 in HepG2 cells transfected with adenoviruses expressing GFP alone or adenoviruses encoding a p53 negative dominant. (B) Oil red staining in HepG2 cells treated with etoposide at different concentrations. (C) Representative western blot of protein levels of peIF2α and Xbp1 in HepG2 cells non-treated and treated with etoposide. *p<0.05, n=4 per group.
HepG2 cells were infected with adenoviruses expressing GFP alone or adenoviruses encoding a p53 negative dominant and treated with etoposide.
HepG2 cells were infected with adenoviruses expressing GFP alone or adenoviruses encoding a p53 negative dominant. Infection efficiency was assessed by decreased expression of phosphor-p53 (pp53) (FIG. 9A). In order to investigate the response of control cells and cells with silenced p53, we challenged them to etoposide, a well established compound that induces stress.

Where [3] appears, read: 0.6 mg/kg i.p. twice per week, 2 months.
[4] abbreviates: 0.6 mg/kg, two months, vs control vehicle.
Setting [5] is: HepG2 cells treated with etoposide.

For `COc1cccc2c1C(=O)c1c(O)c3c(c(O)c1C2=O)C[C@@](O)(C(=O)CO)C[C@@H]3O[C@H]1C[C@H](N)[C@H](O)[C@H](C)O1` [doxorubicin], the “amount of lipids in the cells vs cells treated with oleic acid” value in the data set with HepG2 (50 nM oleic acid+doxorubicin) was “significant decrease in the amount of lipids”. For the same compound, in the data set on HFD-induced obese mice (setting [3]), the “body composition: muscle mass” value is on record as “without altering the muscle mass” and the “body composition: quantity of fat” value is “reduce quantity of fat”. For the same compound, the “levels of troponine (marker of cardiovascular damage)” value with HFD-induced obese mice (0.6 mg/kg i.p., serum) is on record as “fails to significantly increase”. For the same compound, in the data set with HFD-induced obese mice (0.6 mg/kg, two months), the “hepatic damage (histological study)” value is “reduced hepatic damage”. In addition, the “liver expression of inflammatory markers TNF-α, arginase, IL-6, NOS2 and F480” value in the data set on HFD-induced obese mice (0.6 mg/kg, two months, mRNA) is given as “reduces the expression”. Further, in the data set with HFD-induced obese mice (setting [4]), the “level of non-esterified fatty acids in the liver” value is listed as “increased” and the “level of triglycerides in the liver” value is “reduced”. In the data set with HFD-induced obese mice (0.6 mg/kg, two months, western blot), the “liver protein levels of ER stress genes pIRE, XBP1, CHOP, pJNK” value was “reduced the protein levels”. Moreover, the body weight entry in the data set with HFD-induced obese mice (all studied dosages (0.15, 0.3, 0.6, 1.25 mg/kg) i.p. twice per week, 2 months) is given as “significant loss of body weight”. The body weight change entry in data set [1] (0.3, 0.6, 1.25, 2.5 and 5 mg/kg intraperitoneal, 1 injection/day, dose dependent) is on record as “significant loss of weight”. Moreover, the “dosages capable of reducing the body weight significantly” value in data set [1] (intraperitoneal) is no less than 0.6 mg/kg. Also, in data set [2], the body weight result is “reduced their body weight significantly” and the hepatic tryglicerides entry was “significantly reduced”.

As for `COc1cc([C@@H]2c3cc4c(cc3[C@@H](O[C@@H]3O[C@@H]5CO[C@@H](C)O[C@H]5[C@H](O)[C@H]3O)[C@H]3COC(=O)[C@H]23)OCO4)cc(OC)c1O` [etoposide], in the data set with HepG2 cells (setting [5]), the “ER stress markers peIF2α and XBP1 in cells with silenced p53 vs control cells” value is reported as “higher levels”; the “amount of lipid droplets in p53 dominant negative-infected cells vs control cells” value is reported as “increased amount of lipid droplets”. In addition, in the data set on HepG2 cells (HepG2 cells, dose-dependent), the “lipid deposition (oil red staining)” value is listed as “increased lipid deposition”.

With `CCCCCCCC/C=C\CCCCCCCC(=O)O` [oleic acid], the “amount of lipids in the cells vs BSA control” value in the data set with HepG2 (oleic acid) is reported as “significantly increases the amount of lipids”.
